The values below come from US4963553A, “4-[(substituted) alkylcarbonyl]-4,5-dihydro- and -4,5,6,7-tetrahydro-7-[(substituted)phenyl]pyrazolo[1,5-a]pyrimidines” (American Cyanamid Co., priority 1988, dated 1990).

Where a name gives a salt, the structure may show the parent alone.

One assay has as its system mice (hypoxic environment). In words: Hypoxic survival test. The conditions noted are these: 100 mg/kg, intraperitoneal, 10% oxygen, 5 minutes. The format is in vivo, mouse (Royal Hart). How it is done:
The hypoxic survival test is a useful in vivo test for measuring the effectiveness of central nervous system-acting drugs in enhancing survival in an hypoxic environment relative to the known parasympathomimetic agent physostigmine.
Drugs are tested by intraperitoneal injection of groups of mice 30 minutes prior to placing them in an hypoxic environment and measuring survival. The rationale of this test is that drugs which enhance survival under hypoxic conditions without concomitant depression or sedative side effects, do so by enhancing brain metabolism, i.e., by improving energy supply relative to demand and so preserving normal brain function under conditions of reduced energy metabolism. Considering the dependence of the brain on a constant supply of energy, drugs which have this property may have many far-reaching therapeutic indications, including aiding recovery from stroke and closed head injury and reducing the deleterious effects of age-related central nervous system deficits.
In the hypoxic survival test, groups of 20 Royal Hart mice (6 weeks of age) were injected intraperitoneally with a test compound in saline at various doses ranging from 1 to 200 mg/kg, 30 minutes prior to placing them in an hypoxic mixture (10% oxygen, 90% […]) and measuring survival after 5 minutes.
A control group of 20 mice was injected intraperitoneally with saline (0.01 ml/g of body weight) and processed as described above.
Another group of 20 mice was injected intraperitoneally with 0.125 mg/kg of physostigmine in saline and processed as described above.
As to `N#Cc1cnn2c1N(C(=O)CN1CCN(CCc3ccccc3)CC1)CC=C2c1cccc(C(F)(F)F)c1` [4,5-Dihydro-4-[[4-(2-phenylethyl)-1-piperazinyl]acetyl]-7-[3-trifluoromethyl)phenyl]pyrazolo[1,5-a]pyrimidine-3-carbonitrile], the “% Survivors” value is recorded as 90%. On the same count and under the same terms, in the case of `CC1C=C(c2cccc(C(F)(F)F)c2)n2ncc(C#N)c2N1C(=O)CN1CCN(Cc2ccccc2)CC1` (stereo not shown) [Example 72, 4,5-Dihydro-5-methyl-4-[[4-(phenylmethyl)-1-piperazinyl]acetyl]-7-[3-(trifluoromethyl)phenyl]pyrazolo[1,5-a]pyrimidine-3-carbonitrile] it was 25%. Same read-out and setting: as for `N#Cc1cnn2c1N(C(=O)CN1CCN(Cc3cccc(C(F)(F)F)c3)CC1)CC=C2c1cccc(C(F)(F)F)c1` [Example 128, 4,5-Dihydro-4-[[4-[(3-trifluoromethylphenyl)methyl]-1-piperazinyl]acetyl]-7-[3-(trifluoromethyl)phenyl]pyrazolo[1,5-a]pyrimidine-3-carbonitrile], the figure is 40%.

The same assay, now with this note: Mus musculus, ip, 5 min, 10 mg/kg, intraperitoneal, 10% oxygen, 5 minutes; read-out: % Survivors.
Consider `N#Cc1cnn2c1N(C(=O)CN1CCN(Cc3c(Cl)cccc3Cl)CC1)CCC2c1cccc(C(F)(F)F)c1` (stereo not shown) [Example 54, 4-[[4-[(2,6-Dichlorophenyl)methyl]-1-piperazinyl]acetyl]-4,5,6,7-tetrahydro-7-[3-(trifluoromethyl)phenyl]pyrazolo[1,5-a]pyrimidine-3-carbonitrile], for which the responders at 10 mg/kg was 25%. For the compound `N#Cc1cnn2c1N(C(=O)CN1CCN(Cc3ccccc3)CC1)CC=C2c1ccc(Cl)cc1` [Example 58, 7-(4-Chlorophenyl)-4,5-dihydro-4-[[4-(phenylmethyl)-1-piperazinyl]acetyl]pyrazolo[1,5-a]pyrimidine-3-carbonitrile], the responders at 10 mg/kg stood at 50%. The same measure, in the same setting: as for `N#Cc1cnn2c1N(C(=O)CN1CCN(Cc3ccccc3C(F)(F)F)CC1)CC=C2c1ccc(Cl)cc1` [Example 59, 7-(4-Chlorophenyl)-4,5-dihydro-4-[[4-[[2-(trifluoromethyl)phenyl]methyl]-1-piperazinyl]acetyl]pyrazolo[1,5-a]pyrimidine-3-carbonitrile], the figure is 55%; as for `NC(=O)c1cnn2c1N(C(=O)CN1CCN(Cc3ccccc3)CC1)CC=C2c1cccc(C(F)(F)F)c1` [Example 75, 4,5-Dihydro-4-[[4-(phenylmethyl)-1-piperazinyl]acetyl]-7-[3-(trifluoromethyl)phenyl]pyrazolo[1,5-a]pyrimidine-3-carboxamide], 15%; as for `N#Cc1cnn2c1N(C(=O)CN1CCN(C3CCC3)CC1)CC=C2c1cccc(C(F)(F)F)c1` [Example 91, 4-[(4-Cyclobutyl-1-piperazinyl)acetyl]-4,5-dihydro-7-[3-(trifluoromethyl)phenyl]pyrazolo[1,5-a]pyrimidine-3-carbonitrile, dihydrochloride], 55%.

Still in this assay, the particulars now being: Mus musculus, ip, 5 min, 50 mg/kg, intraperitoneal, 10% oxygen, 5 minutes; read-out: % Survivors.
For the compound `CC1=C(c2cccc(Cl)c2)n2ncc(C#N)c2N(C(=O)CN2CCN(Cc3cccc(Cl)c3)CC2)C1` [Example 131, 7-(3-Chloroohenyl)-4-[[4-[(3-Chlorophenyl)methyl-1-piperazinyl]acetyl]4,5-dihydro-6-methylpyrazolo[1,5-a]pyrimidine-3-carbonitrile, dihydrochloride], the responders at 50 mg/kg amounted to 73%.

Still in this assay, the particulars now being: Mus musculus, ip, 5 min, 100 mg/kg, intraperitoneal, 10% oxygen, 5 minutes; read-out: % Survivors.
For the compound `N#Cc1cnn2c1N(C(=O)CN1CCN(c3ccccc3)CC1)CC=C2c1cc(Cl)ccc1Cl` [7-(2,5-Dichlorophenyl)-4,5-dihydro-4-[(4-phenyl-1-piperazinyl)acetyl]pyrazolo[1,5-a]pyrimidine-3-carbonitrile], the responders at 100 mg/kg amounted to 70%.

Consider `CC1=C(c2cccc(Cl)c2)n2ncc(C#N)c2N(C(=O)CN2CCN(Cc3cccc(C(F)(F)F)c3)CC2)C1` [7-(3-Chlorophenyl)-4,5-dihydro-6-methyl-4-[[4-[[3-(trifluoromethyl)phenyl]methyl]-1-piperazinyl]acetyl]pyrazolo[1,5-a]pyrimidine-3-carbonitrile, sesquihydrochloride], for which the responders at 100 mg/kg is 35%. Turning to `N#Cc1cnn2c1N(C(=O)CN1CCN(Cc3cccc(Cl)c3)CC1)CCC2c1cccc(C(F)(F)F)c1` (stereo not shown) [Example 53, 4-[[4-[(3-Chlorophenyl)methyl]-1-piperazinyl]acetyl]-4,5,6,7-tetrahydro-7-[3-(trifluoromethyl)phenyl]pyrazolo[1,5-a]pyrimidine-3-carbonitrile], the responders at 100 mg/kg is 15%. As to `N#Cc1cnn2c1N(C(=O)CN1CCN(Cc3ccccc3)CC1)CC=C2c1ccc(Cl)cc1` [Example 58, 7-(4-Chlorophenyl)-4,5-dihydro-4-[[4-(phenylmethyl)-1-piperazinyl]acetyl]pyrazolo[1,5-a]pyrimidine-3-carbonitrile], the responders at 100 mg/kg worked out at 82.5%.

As to `N#Cc1cnn2c1N(C(=O)CN1CCN(Cc3ccccc3C(F)(F)F)CC1)CC=C2c1ccc(Cl)cc1` [Example 59, 7-(4-Chlorophenyl)-4,5-dihydro-4-[[4-[[2-(trifluoromethyl)phenyl]methyl]-1-piperazinyl]acetyl]pyrazolo[1,5-a]pyrimidine-3-carbonitrile], the responders at 100 mg/kg turned out to be 90%. Turning to `N#Cc1cnn2c1N(C(=O)CN1CCN(Cc3ccccc3)CC1)CC=C2c1cc(Cl)ccc1Cl` [Example 62, 7-(2,5-Dichlorophenyl)-4,5-dihydro-4-[[4-(phenylmethyl)-1-piperazinyl]acetyl]pyrazolo[1,5-a]pyrimidine-3-carbonitrile], the responders at 100 mg/kg came to 50%.

Take `Cc1ccc(C)c(N2CCN(CC(=O)N3CC=C(c4cc(Cl)ccc4Cl)n4ncc(C#N)c43)CC2)c1` [Example 66, 7-(2,5-Dichlorophenyl)-4-[[4-(2,5-dimethylphenyl)-1-piperazinyl]acetyl]-4,5-dihydropyrazolo[1,5-a]pyrimidine-3-carbonitrile]: the responders at 100 mg/kg is 45%.

As to `N#Cc1cnn2c1N(C(=O)CN1CCN(C(=O)c3ccccc3)CC1)CC=C2c1cccc(C(F)(F)F)c1` [Example 68, 4-[[4-Benzoyl-1-piperazinyl)acetyl]-4,5-dihydro-7-[3-(trifluoromethyl)phenyl]pyrazolo[1,5-a]pyrimidine-3-carbonitrile], the responders at 100 mg/kg turned out to be 95%. In the case of `O=C(CN1CCN(Cc2ccccc2)CC1)N1CC=C(c2cccc(C(F)(F)F)c2)n2ncc(Br)c21` [Example 76, 3-Bromo-4,5-dihydro-4-[[4-(phenylmethyl)-1-piperazinyl]acetyl]-7-[3-(trifluoromethyl)phenyl]pyrazolo[1,5-a]pyrimidine], the responders at 100 mg/kg was 35%. Take `N#Cc1cnn2c1N(C(=O)CN1CCN(C(c3ccc(F)cc3)c3ccc(F)cc3)CC1)CC=C2c1cccc(C(F)(F)F)c1` [Example 88, 4-[[4-[Bis(4-Fluorophenyl)methyl]-1-piperazinyl]acetyl]-4,5-dihydro-7-[3-(trifluoromethyl)phenyl]pyrazolo[1,5-a]pyrimidine-3-carbonitrile, dihydrochloride]: the responders at 100 mg/kg was 55%. On the same count and under the same terms, in the case of `CC1C=C(c2cccc(C(F)(F)F)c2)n2ncc(C#N)c2N1C(=O)CN1CCN(Cc2ccccc2)CC1` (stereo not shown) [Example 95, 4,5-Dihydro-5-methyl-4-[[4-(phenylmethyl)-1-piperazinyl]acetyl]-7-[3-(trifluoromethyl)phenyl]pyrazolo[1,5-a]pyrimidine-3-carbonitrile, dihydrochloride] it was 43%; in that of `N#Cc1cnn2c1N(C(=O)CN1CCN(C(=O)Nc3ccc(Cl)c(C(F)(F)F)c3)CC1)CC=C2c1cccc(C(F)(F)F)c1` [Example 106, N-[4-Chloro-3-(trifluoromethyl)phenyl]-4-[2-[3-cyano-7-[3-(trifluoromethyl)phenyl)pyrazolo[1.5-a]pyrimidin-4(5H)-yl]-2-oxoethyl]-1-piperazinecarboxamide], 15%.

Consider `N#Cc1cnn2c1N(C(=O)CN1CCN(C(=O)Nc3ccc(F)cc3F)CC1)CC=C2c1cccc(C(F)(F)F)c1` [Example 107], for which the responders at 100 mg/kg amounted to 20%. The same measure, in the same setting: as for `CC1=C(c2cccc(C(F)(F)F)c2)n2ncc(C#N)c2N(C(=O)CN2CCN(Cc3ccccc3)CC2)C1` [Example 111, 4,5-Dihydro-6-methyl-4-[[4-(phenylmethyl)-1-piperazinyl]acetyl]-7-[3-(trifluoromethyl)phenyl]pyrazolo[1.5-a]pyrimidine-3-carbonitrile. dihydrochloride], the figure is 73%. Same read-out and setting: in the case of `CC1=C(c2cccc(Cl)c2)n2ncc(C#N)c2N(C(=O)CN2CCN(Cc3ccccc3)CC2)C1` [Example 113, 7-(3-Chlorophenyl)-4.5-dihydro-6-methyl-4-[[4-(phenylmethyl)piperazinyl]acetyl]pyrazolo[1,5-a]pyrimidine-3-carbonitrile, dihydrochloride] it was 30%; in that of `CC1=C(c2ccc(Cl)cc2)n2ncc(C#N)c2N(C(=O)CN2CCN(Cc3ccccc3)CC2)C1` [Example 114, 7-(4-Chlorophenyl)-4.5-dihydro-6-methyl-4[[4-(phenylmethyl)piperazinyllacetyllpyrazolo[1,5-a]pyrimidine-3-carbonitrile, dihydrochloride], 25%.

On to `CC1=C(c2cccc(Cl)c2)n2ncc(C#N)c2N(C(=O)CN2CCN(Cc3cccc(Cl)c3)CC2)C1` [Example 131, 7-(3-Chloroohenyl)-4-[[4-[(3-Chlorophenyl)methyl-1-piperazinyl]acetyl]4,5-dihydro-6-methylpyrazolo[1,5-a]pyrimidine-3-carbonitrile, dihydrochloride], for which the responders at 100 mg/kg worked out at 77%.

Still in this assay, the particulars now being: Mus musculus, ip, 5 min, 200 mg/kg, intraperitoneal, 10% oxygen, 5 minutes; read-out: % Survivors.
Regarding `Cc1ccc(C)c(N2CCN(CC(=O)N3CC=C(c4cc(Cl)ccc4Cl)n4ncc(C#N)c43)CC2)c1` [Example 66, 7-(2,5-Dichlorophenyl)-4-[[4-(2,5-dimethylphenyl)-1-piperazinyl]acetyl]-4,5-dihydropyrazolo[1,5-a]pyrimidine-3-carbonitrile], the responders at 200 mg/kg was 80%. Consider `CC1=C(c2cccc(Cl)c2)n2ncc(C#N)c2N(C(=O)CN2CCN(Cc3cccc(C(F)(F)F)c3)CC2)C1` [Example 127, 7-(3-Chlorophenyl)-4,5-dihydro-6-methyl-4-[[4-[[3-(trifluoromethyl)phenyl]methyl]-1-piperazinyl]acetyl]pyrazolo[1,5-a]pyrimidine-3-carbonitrile], for which the responders at 200 mg/kg worked out at 73%.
